# Laboratory results: patent US20240018121A1, “NOVEL HETEROAROMATIC COMPOUNDS EXHIBITING ANTIFUNGAL ACTIVITY AND THEIR METHOD OF USE” (FOX CHASE CHEMCIAL DIVERSITY CENTER, INC., priority 2020, published 2024)
# Structures can show the parent of a compound that is named as a salt. Where two headings read alike, the source gives them in different places.
# What was measured:
# Type in all cases: cell-based
# [1] = test system: Aspergillus flavus AFL1 (ATCC MYA-3631); assay: Fungal MIC Protocol, Aspergillus flavus; conditions: Aspergillus flavus, read-out: MIC Aspergillus flavus 3631
# Method: (§1) Fungal MIC Protocol: RPMI/MOPS media (Roswell Park Memorial Institute/3-morpholinopropane-1-sulfonic acid media) is prepared by dissolving 8.4 grams RPMI […] (Sigma cat #R1383), 34.52 grams MOPS buffer (Sigma cat #M3.183) and 2 […] glucose in 900 mL deionized water. The pH is adjusted to 7.0 with NaOH and filter sterilized. 0.1 mL, of a stock spore suspension (or loop from frozen stock) is inoculated to a 75 mL tissue culture flask (Falcon cat #353136) containing 50 mL of Potato Dextrose Agar (PDA, 24 grams PD broth (Fisher cat #DF 0549179), 20 grams agar (Fisher cat #BP 1423500) per liter water). Aspergillus and Fusarium strains are grown at 35° C. and Mucor strains are grown at room temperature for 3-5 days. Spores are harvested by flooding the flask with 5 mL phosphate buffered saline (PBS) pH 7.4+0.1% Tween-20 and several glass beads (Fisher cat #S800243) are added to aid in agitation. The supernatant is removed and the OD530 of a 1:100 dilution is measured. Spores are diluted in RPMI/MOPS to a final OD530 of 0.002 for Aspergillus and an OD530 of 0.005 for Fusarium and Mucor. The final concentration of spores is approximately 2×10^4 cfu/mL. Test compound(s) are diluted to 200 ug/mL in RPMI/MOPS ([…]). Ten (10) serial dilutions are prepared with RPMI/MOPS in a 96-well round bottom plate (Fisher cat #353136). For Mucor strains a sterile flat-bottom 96-well plate is used. 50 μl of compound dilutions in duplicate are added to a sterile 96-well round bottom plate. 50 ul of diluted spores are added to the compound-containing plates. Control wells include 1) compound but no cells and 2) spores but no compound. Mix the plates gently by hand, place in ziplock bags and
# (§2) incubate at 35° C. for 48 hours. […]
# [2] = test system: Aspergillus fumigatus T33439 (ATCC MYA-3626); assay: Fungal MIC Protocol, Aspergillus fumigatus; conditions: Aspergillus fumigatus, read-out: MIC Aspergillus fumigatus 3626
# Method: as §1, §2
# [3] = test system: Fusarium falciforme FS1 (ATCC MYA-3636); assay: Fungal MIC Protocol, Fusarium falciforme; conditions: Fusarium falciforme, read-out: MIC Fusarium falciforme 3636
# Method: as §1, §2
# [4] = test system: Fusarium solani (ATCC 58877); assay: Fungal MIC Protocol, Fusarium solani; conditions: Fusarium solani, read-out: MIC Fusarium solani 58877
# Method: as §1, §2
# [5] = test system: Mucor circinelloides 1463(62) (ATCC 26759); assay: Fungal MIC Protocol, Mucor circinelloides (MIC-50); conditions: Mucor circinelloides, read-out: MIC-50 Mucorales circinelloides 26579
# Method: as §1
# (§3) incubate at 35° C. for 48 hours. Score the MIC visually (lowest concentration of compound showing >50% growth inhibition) using an inverted mirror.
# [6] = test system: Mucor ramosissimus 057718 (ATCC 90286); assay: Fungal MIC Protocol, Mucor ramosissimus (MIC-50); conditions: Mucor ramosissimus, read-out: MIC-50 Mucorales ramosissimus 90286
# Method: as §1, §3
# [7] = 100% growth inhibition at 48 hours
# [8] = ATCC58877, 100% growth inhibition at 48 hours
# [9] = ATCC26759, 50% growth inhibition at 48 hours
# [10] = ATCC90286, 50% growth inhibition at 48 hours
Structure (SMILES),"MIC [1, 7] [µg/mL]","MIC [2, 7] [µg/mL]","MIC [3, 7] [µg/mL]","MIC [4, 8] [µg/mL]","MIC50 [5, 9] [µg/mL]","MIC50 [6, 10] [µg/mL]",MIC ([1]; 48 h) [µg/mL],MIC ([2]; 48 h) [µg/mL],MIC ([3]; 48 h) [µg/mL],"MIC ([4]; ATCC58877, 48 h) [µg/mL]","MIC50 ([5]; ATCC26759, 48 h) [µg/mL]","MIC50 ([6]; ATCC90286, 48 h) [µg/mL]"
"N=C(N)N1CC=C(c2ccc(-c3nnc(-c4ccc(C5=CCN(C(=N)N)CC5)cc4F)n3CCOCCO)c(F)c2)CC1 [Example 77, 4-(4-{5-[4-(1-carbamimidoyl-1,2,3,6-tetrahydropyridin-4-yl)-2-fluorophenyl]-4-[2-(2-hydroxyethoxy)ethyl]-4H-1,2,4-triazol-3-yl}-3-fluorophenyl)-1,2,3,6-tetrahydropyridine-1-carboximidamide trifluoroacetate]",–,–,–,–,–,–,0.78,0.2,0.2,0.2,6.25,25
"N=C(N)N1CC=C(c2ccc(-c3nnc(-c4ccc(C5=CCN(C(=N)N)CC5)cc4F)n3C(CO)CO)c(F)c2)CC1 [Example 71, 4-(4-{5-[4-(1-carbamimidoyl-1,2,3,6-tetrahydropyridin-4-yl)-2-fluorophenyl]-4-(1,3-dihydroxypropan-2-yl}-4H-1,2,4-triazol-3-yl)-3-fluorophenyl)-1,2,3,6-tetrahydropyridine-1-carboximidamide hydrochloride]",–,–,–,–,–,–,3.13,1.56,1.56,0.39,25,25
"COc1cc(-c2nnc(-c3ccc(C4=CCN(C(=N)N)CC4)c(OC)c3)n2CCO)ccc1C1=CCN(C(=N)N)CC1 [Example 76, 4-(4-{5-[4-(1-carbamimidoyl-1,2,3,6-tetrahydropyridin-4-yl)-3-methoxyphenyl]-4-(2-hydroxyethyl)-4H-1,2,4-triazol-3-yl}-2-methoxyphenyl)-1,2,3,6-tetrahydropyridine-1-carboximidamide trifluoroacetate]",–,–,–,–,–,–,3.13,0.78,0.78,0.39,25,25
"CC(O)Cn1c(-c2ccc(C3=CCN(C(=N)N)CC3)cc2F)nnc1-c1ccc(C2=CCN(C(=N)N)CC2)cc1F (stereo not shown) [Example 66, 4-(4-{5-[4-(1-carbamimidoyl-1,2,3,6-tetrahydropyridine-4-yl)-2-fluorophenyl]-4-(2-hydroxypropyl)-4H-1,2,4-triazol-3-yl}-3-fluorophenyl)-1,2,3,6-tetrahydropyridine-1-carboximidamide trifluoroacetate]",–,–,–,–,–,–,0.39,0.2,0.1,0.2,1.56,6.25
"COc1cc(C2=CCN(C(=N)N)CC2)ccc1-c1nnc(-c2ccc(C3=CCN(C(=N)N)CC3)cc2OC)n1CCO [Example 75, 4-(4-{5-[4-(1-carbamimidoyl-1,2,3,6-tetrahydropyridin-4-yl)-2-methoxyphenyl]-4-(2-hydroxyethyl)-4H-1,2,4-triazol-3-yl}-3-methoxyphenyl)-1,2,3,6-tetrahydropyridine-1-carboximidamide trifluoroacetate]",–,–,–,–,–,–,3.13,1.56,1.56,0.39,25,25
"N=C(N)N1CC=C(c2ccc(-c3nnc(-c4ccc(C5=CCN(C(=N)N)CC5)c(C(F)(F)F)c4)n3CCO)cc2C(F)(F)F)CC1 [Example 80, 4-(4-{5-[4-(1-carbamimidoyl-1,2,3,6-tetrahydropyridin-4-yl)-3-(trifluoromethyl)phenyl]-4-(2-hydroxyethyl)-4H-1,2,4-triazol-3-yl}-2-(trifluoromethyl)phenyl)-1,2,3,6-tetrahydropyridine-1-carboximidamide hydrochloride]",–,–,–,–,–,–,25,25,25,25,25,25
"CC(C)(O)Cn1c(-c2ccc(C3=CCN(C(=N)N)CC3)cc2F)nnc1-c1ccc(C2=CCN(C(=N)N)CC2)cc1F [Example 74, 4-(4-{5-[4-(1-carbamimidoyl-1,2,3,6-tetrahydropyridin-4-yl)-2-fluorophenyl]-4-(2-hydroxy-2-methylpropyl)-4H-1,2,4-triazol-3-yl}-3-fluorophenyl)-1,2,3,6-tetrahydropyridine-1-carboximidamide hydrochloride]",–,–,–,–,–,–,0.78,0.39,0.1,0.1,1.56,3.13

# Second part, led by results:
"MIC [1, 7] [µg/mL]","MIC [2, 7] [µg/mL]","MIC [3, 7] [µg/mL]","MIC [4, 8] [µg/mL]","MIC50 [5, 9] [µg/mL]","MIC50 [6, 10] [µg/mL]",Structure (SMILES),MIC ([1]; 48 h) [µg/mL],MIC ([2]; 48 h) [µg/mL],MIC ([3]; 48 h) [µg/mL],"MIC ([4]; ATCC58877, 48 h) [µg/mL]","MIC50 ([5]; ATCC26759, 48 h) [µg/mL]","MIC50 ([6]; ATCC90286, 48 h) [µg/mL]"
1.56,0.39,< 0.1,0.39,1.56,6.25,"N=C(N)N1CC=C(c2ccc(-c3nnc(-c4ccc(C5=CCN(C(=N)N)CC5)cc4)n3Cc3ccccc3)cc2)CC1 [Example 5, 4,4′-(4,4′-(4-Benzyl-4H-1,2,4-triazole-3,5-diyl)bis(4,1-phenylene))bis(5,6-dihydropyridine-1(2H)-carboximidamide)]",–,–,–,–,–,–
0.78,0.39,0.2,0.1,6.25,12.5,"CN(C)CCn1c(-c2ccc(C3=CCN(C(=N)N)CC3)cc2F)nnc1-c1ccc(C2=CCN(C(=N)N)CC2)cc1F.Cl [Example 72, 4-(4-{5-[4-(1-carbamimidoyl-1,2,3,6-tetrahydropyridin-4-yl)-2-fluorophenyl]-4-[2-(dimethylamino)ethyl]-4H-1,2,4-triazol-3-yl}-3-fluorophenyl)-1,2,3,6-tetrahydropyridine-1-carboximidamide hydrochloride]",–,–,–,–,–,–
12.5,100,–,–,12.5,100,"CC(C)Nc1cc(C2=CCN(C(=N)N)CC2)ccc1-c1nnc(-c2ccc(C3=CCN(C(=N)N)CC3)cc2F)n1C(C)C [Example 26, 4-(4-(5-(4-(1-Carbamimidoyl-1,2,3,6-tetrahydropyridin-4-yl)-2-(isopropylamino)phenyl)-4-isopropyl-4H-1,2,4-triazol-3-yl)-3-fluorophenyl)-5,6-dihydro pyridine-1(2H)-carboximidamide]",–,–,–,–,–,–
< 0.1,< 0.1,< 0.1,< 0.1,> 100,> 100,"Cn1c(-c2ccc(C3=CCN(C(=N)N)C3)cc2F)nnc1-c1ccc(C2=CCN(C(=N)N)C2)cc1F [Example 28, 3,3′-(4,4′-(4-Methyl-4H-1,2,4-triazole-3,5-diyl)bis(3-fluoro-4,1-phenylene)) bis(2,5-dihydro-1H-pyrrole-1-carboximidamide)]",–,–,–,–,–,–
0.78,0.39,< 0.1,0.39,0.78,0.78,N=C(N)N1CC=C(c2ccc(-c3nnc(-c4ccc(C5=CCN(C(=N)N)CC5)cc4F)n3Cc3ccccc3)c(F)c2)CC1 [Example 18],–,–,–,–,–,–
0.78,0.39,0.1,0.1,1.56,6.25,"COCCOCCn1c(-c2ccc(C3=CCN(C(=N)N)CC3)cc2F)nnc1-c1ccc(C2=CCN(C(=N)N)CC2)cc1F [Example 81, 4-(4-{5-[4-(1-carbamimidoyl-1,2,3,6-tetrahydropyridin-4-yl)-2-fluorophenyl]-4-[2-(2-methoxyethoxy)ethyl]-4H-1,2,4-triazol-3-yl}-3-fluorophenyl)-1,2,3,6-tetrahydropyridine-1-carboximidamide]",–,–,–,–,–,–
6.25,6.25,1.56,1.56,6.25,50,"Cn1c(-c2ccc(C3=CCC(NC(=N)N)CC3)cc2F)nnc1-c1ccc(C2=CCC(NC(=N)N)CC2)cc1F (stereo not shown) [Example 40, 1-[4-(4-{5-[4-(4-Carbamimidamidocyclohex-1-en-1-yl)-2-fluorophenyl]-4-methyl-4H-1,2,4-triazol-3-yl}-3-fluorophenyl)cyclohex-3-en-1-yl]guanidine]",–,–,–,–,–,–
